Data set [1] concerns NTCP. Nature of the data set: Expression level of NTCP in rat liver (UHPLC-MS/MS signature peptide) and correlation with AUC. The format is in vivo. To be noted: before administration of AE-PM. From the text: (§1) The detection method for UGT1A1 and nine other transporter proteins in the liver was comprehensively investigated in our study (35).
An Agilent 1290 Infinity series UHPLC system coupled to an Agilent 6460 series MS/MS system (Agilent Technologies, Santa Clara, CA, United States) was applied to quantitate the signature peptides in ESI positive ionization mode. […] The sequence of characteristic peptides that corresponded to UGT1A1 and the other nine transporter proteins were based on our previous experiments and listed in Table 3 .
(§2) Total membrane protein was isolated (in triplicate) from liver tissue samples according to the Native Membrane Protein Extraction Kit protocol. Subsequently, protein concentrations were determined by the BCA Protein Assay Kit. 10 µl of 5 mg/ml (or lower concentration) of a hepatocyte membrane protein incubated with 20 µl of dithiothreitol (100 mM) and 50 µl of ammonium bicarbonate buffer (50 mM, pH 7.8). After incubation at 95°C for 5 min, 20 µl of iodoacetamide (20 mM) was added to the mixture, followed by incubation at 37°C for 20 min in the dark. To concentrate the samples, ice-cold methanol (0.5 ml), chloroform (0.2 ml), and water (0.2 ml) were added. […]

The nature of data set [2]: Pharmacokinetics of AE-PM components and their phase II metabolites in rat plasma after single oral administration (UHPLC-MS/MS, with and without sulfatase hydrolysis). To be noted: plasma; for CL/F: CLz/F; for MRT inf: MRT (0-∞); for Vd/F: Vz/F.
Procedure: (§4) To explore the pharmacokinetic properties of PM following intragastric administration in rats, a rapid and sensitive method involving the use of UHPLC-MS/MS (Agilent 6460 series, Agilent Technologies, Santa Clara, CA, United States) was developed and validated for the simultaneous quantification of nine active components in rat plasma. The quantification was conducted in ESI negative ionization mode, and mass spectrometry conditions were set up as follows: capillary voltage of 3500 V; gas flow at 12 L/min; nebulizer of 40 psi; the gas temperature of 350°C; and delta EMV (−) of 400. A 10 µl extraction sample was injected into the column (Agilent SB-C18 column, 2.1 mm × 50 mm, 1.8 mm) and eluted at 0.4 ml/min with a gradient elution of water (with 0.1% v/v formic acid) (A) and acetonitrile (B) (0–1.5 min, 20–30% B; 1.5–3.5 min, 30–50% B; 3.five to four min, 50–55%B; 4–6.5 min, 55–85% B; 6.5–6.6 min, 85–20% B and re-equilibration for 3 min).
(§5) A 50 µl aliquot of blood plasma sample was placed in a centrifuge tube with 50 µl of puerarin (internal standard, IS) solution (1,000 ng/ml), followed by 150 µl methanol, which was mixed for 5 min. Then, the mixture was centrifuged for 10 min at 15,000 rpm (4°C), the supernatant was transferred to a clean centrifuge tube and dried with nitrogen gas at room temperature. The residue was resuspended in 100 µl of methanol, then centrifuged at 15,000 rpm (4°C, 10 min), and 10 µl of the supernatant was analyzed by UHPLC-MS/MS.
(§6) Additional plasma samples (50 µl) were enzymatically hydrolyzed with 50 µl of enzyme solution (65.86 mg of sulfatase, dissolved in 2 ml of sodium acetate buffer, pH 5.0) for phase II metabolite quantification, in accordance with our previous study ([Ding et al., 2012]; [Yi et al., 2018]). After being vortex mixed for 5 min, the mixture was incubated at 37°C for 30 min and returned to room temperature. Subsequently, the samples were processed as described above.
(§7) The remaining 21 rats of the three groups were treated with a single oral dose of AE-PM (50.4 g PM/kg). […] Blood was collected in heparinized tubes at 5, 15, 30, 45, 60, 120, 240, 360, 480, 720, 1,440, 2,880, and 4,320 min after administration. The blood samples were centrifuged at 5,000 rpm (4°C) for 7 min, and the supernatant plasma was harvested.
(§8) All data were presented as mean ± standard deviation (SD). A one-way analysis of variance (ANOVA) was used to compare the data between three groups. The differences were considered to be statistically significant when p < 0.05 and highly significant when the p-value was <0.01 or p < 0.001. Spearman rank correlation coefficient, calculated by bivariate correlation analysis was used to evaluate the correlation between AUC values and expression levels of metabolic enzyme and transporters. All statistical analyses were performed with the SPSS Statistics system (SPSS vision 21.0). Pharmacokinetic data analyses were performed using DAS 2.1.1 software (Mathematical Pharmacology Professional Committee of China, Shanghai, China).
For data set [3] the following is noted: rat, in vivo, po.
Procedure: as §4, §5, §6, §7, §8
For data set [4], the system named is BSEP. Nature of the data set: Expression level of BSEP in rat liver (UHPLC-MS/MS signature peptide) and correlation with AUC. The format is in vivo. To be noted: before administration of AE-PM. How it is done:
as §1
(§3) The sequence of characteristic peptides that corresponded to UGT1A1 and the other nine transporter proteins were based on our previous experiments and listed in Table 3 .
as §2, with “added. After centrifugation at 4°C for 5 min at 16,000 g, the supernatant was discarded and the pellet was washed once with ice-cold methanol (0.25 ml) and resuspended with 40 µl of reconstitution solution (equal volume of 3% sodium deoxycholate (w/v) and 5 mM ammonium bicarbonate buffer). Finally, the protein sample was digested with 10 µl of trypsin. The protein-to-trypsin ratio was 25:1 (w/w).” for “added.”

Data set [5] has as its system UGT1A1. Nature of the data set: Expression level of UGT1A1 in rat liver (UHPLC-MS/MS signature peptide) and correlation with AUC. The format is in vivo. To be noted: before administration of AE-PM. How it is done:
as §1, §3
as §2, with “added. After centrifugation at 4°C for 5 min at 16,000 g, the supernatant was discarded and the pellet was washed once with ice-cold methanol (0.25 ml) and resuspended with 40 µl of reconstitution solution (equal volume of 3% sodium deoxycholate (w/v) and 5 mM ammonium bicarbonate buffer). Finally, the protein sample was digested with 10 µl of trypsin. The protein-to-trypsin ratio was 25:1 (w/w).” for “added.”

Data set [6] in a line: Serum biochemistry in ANIT and CCl4 liver injury model rats. The format is in vivo, rat. The conditions noted are these: 24 h after model induction; before AE-PM.
Procedure: Additionally, group 3 represented the CCl4-induced hepatocytes injury model, which was treated with pure CCl4 (5 ml/kg, s. c.) on day 0, 50% CCl4 (diluted in olive oil) (3 ml/kg, s. c.) on day 3, and 20% CCl4 (diluted in olive oil) (3 ml/kg, s. c.) on day 6. After 24 h, five rats selection for serum and liver collection from each of the three groups. Blood samples were collected in a coagulation tube, and were centrifuged at 4°C for 15 min (4,000 rpm), The resultant serum was used for the ALT, AST, TBIL, DBIL, TBA and ALP assays. Liver samples were dissected and stored at −80°C for further analysis, whereas the central part of the right large lobe of the liver was used for histological examination.
Data set [7] deals with MDR1. The experiment in a line: Expression level of MDR1 in rat liver (UHPLC-MS/MS signature peptide) and correlation with AUC. It is filed as in vivo. The conditions noted are these: before administration of AE-PM. How it is done: as §1, §3
as §2, with “added. After centrifugation at 4°C for 5 min at 16,000 g, the supernatant was discarded and the pellet was washed once with ice-cold methanol (0.25 ml) and resuspended with 40 µl of reconstitution solution (equal volume of 3% sodium deoxycholate (w/v) and 5 mM ammonium bicarbonate buffer). Finally, the protein sample was digested with 10 µl of trypsin. The protein-to-trypsin ratio was 25:1 (w/w).” for “added.”

The subject of data set [8] is OATP1A4. Nature of the data set: Expression level of OATP1A4 in rat liver (UHPLC-MS/MS signature peptide) and correlation with AUC. It is filed as in vivo. To be noted: before administration of AE-PM. How it is done:
as §1, §3
as §2, with “added. After centrifugation at 4°C for 5 min at 16,000 g, the supernatant was discarded and the pellet was washed once with ice-cold methanol (0.25 ml) and resuspended with 40 µl of reconstitution solution (equal volume of 3% sodium deoxycholate (w/v) and 5 mM ammonium bicarbonate buffer). Finally, the protein sample was digested with 10 µl of trypsin. The protein-to-trypsin ratio was 25:1 (w/w).” for “added.”

Data set [9] relates to OCT1. The experiment in a line: Expression level of OCT1 in rat liver (UHPLC-MS/MS signature peptide) and correlation with AUC. The format is in vivo. To be noted: before administration of AE-PM. How it is done:
as §1, §3
as §2, with “added. After centrifugation at 4°C for 5 min at 16,000 g, the supernatant was discarded and the pellet was washed once with ice-cold methanol (0.25 ml) and resuspended with 40 µl of reconstitution solution (equal volume of 3% sodium deoxycholate (w/v) and 5 mM ammonium bicarbonate buffer). Finally, the protein sample was digested with 10 µl of trypsin. The protein-to-trypsin ratio was 25:1 (w/w).” for “added.”

[10] abbreviates: CCl4 group rats, oral AE-PM 50 g/kg, n = 6.
The mark [11] stands for this setting: rat, po, 50 g/kg, ANIT group rats, oral AE-PM 50 g/kg, n = 6.
The mark [12] stands for this setting: rat, po, 50 g/kg, CCl4 group rats, oral AE-PM 50 g/kg, n = 6.
Setting [13] is: rat, po, 50 g/kg, Normal group rats, oral AE-PM 50 g/kg, n = 6.

On to `S=C=Nc1cccc2ccccc12` [ANIT, alpha-naphthylisothiocyanate], for which the “Reduction of NTCP expression level compared with the control group” value in data set [1] is given as 38.02%.

Regarding `Cc1cc(O)c2c(c1)C(=O)c1cc(O)cc(O)c1C2=O` [Emodin, emodin], in data set [2] (setting [10]), the Tmax is recorded as 0.25 ± 0.0659 h and the t1/2z was 3.654 ± 0.267 h. In addition, in data set [2] (Normal group rats, oral AE-PM 50 g/kg, n = 6), the t1/2z is recorded as 3.681 ± 1.075 h. In data set [2] (setting [11]), the AUC(0-inf) was 1500 ng·h/mL, the CL/F was 223 mL/min/kg, the highest concentration (Cmax) was determined as 607 ± 29.9 ng/mL and the mean residence time MRT inf worked out at 22.8 ± 5.28 h. For the same compound, the Vd/F in data set [2] (setting [11]) was 75.5 ± 8.86 L/kg. Also, in data set [2] (setting [12]), the AUC(0-inf) was 5970 ng·h/mL, the CL/F is 55.9 mL/min/kg, the Cmax was 6430 ng/mL and the mean residence time MRT inf is 1.23 ± 0.681 h. The Vd/F in data set [2] (setting [12]) is 68.1 ± 6.03 L/kg. For the same compound, in data set [2] (setting [13]), the AUC(0-inf) was 3400 ng·h/mL, the CL/F is 98.1 mL/min/kg, the Cmax worked out at 4100 ng/mL and the MRT inf was 6.09 ± 1.83 h. Further, the Vd/F in data set [2] (setting [13]) is 31.3 ± 3.25 L/kg. In addition, the Tmax in data set [2] (rat, po, 50 g/kg, Tmax, Normal group rats, oral AE-PM 50 g/kg, n = 6) worked out at 0.167 ± 0.059 h. The half-life in data set [2] (rat, po, 50 g/kg, t1/2z, ANIT group rats, oral AE-PM 50 g/kg, n = 6) is 3.91 ± 0.821 h. In addition, the Tmax in data set [2] (rat, po, 50.4 g PM/kg, Tmax, different groups (normal, ANIT, CCl4), oral AE-PM) is below 0.5 h. Moreover, the “Conversion into phase II metabolites” value in data set [2] (rats, oral AE-PM) was “partially converted”. In data set [3], the “Decrease of AUC (0-∞) compared with the normal group” value was determined as 55.98%, the “Decrease of Cmax compared with the normal group” value came out at 85.18%, the “Increase of AUC (0-∞) compared with the normal group” value was determined as 75.69% and the “Increase of Cmax compared with the normal group” value is 57.02%.

On to `ClC(Cl)(Cl)Cl` [CCl4, Carbon tetrachloride], for which the “Reduction of BSEP expression level compared with the control group” value in data set [4] stood at 26.92%. Also, the “Reduction of UGT1A1 expression level compared with the control group” value in data set [5] is reported as 31.18%. Also, in data set [6], the “Increase of serum ALT compared with the control group” value is listed as 4.45 folds and the “Increase of serum AST compared with the control group” value is 2.68 folds. The “Reduction of MDR1 expression level compared with the control group” value in data set [7] is 34.15%. Besides, the “Reduction of NTCP expression level compared with the control group” value in data set [1] is given as 15.75%. Moreover, in [8], the “Reduction of OATP1A4 expression level compared with the control group” value is 46.11%. Besides, the “Reduction of OCT1 expression level compared with the control group” value in data set [9] was determined as 22.30%.

The values above are taken from article PMC8245786, “Comparative Studies on Multi-Component Pharmacokinetics of Polygonum multiflorum Thunb Extract After Oral Administration in Different Rat Models” (Frontiers in Pharmacology, 2021).
